Test results as given in US11524966B1 (Valo Early Discovery, Inc., priority 2017, dated 2022).

Target: T1, USP25 (USP25-His6, Boston Biochem E-546) (Homo sapiens, UniProt Q9UHP3)
T1 construct: His6; purchased Boston Biochem E-546
T1 sequence (Q9UHP3 1-1055): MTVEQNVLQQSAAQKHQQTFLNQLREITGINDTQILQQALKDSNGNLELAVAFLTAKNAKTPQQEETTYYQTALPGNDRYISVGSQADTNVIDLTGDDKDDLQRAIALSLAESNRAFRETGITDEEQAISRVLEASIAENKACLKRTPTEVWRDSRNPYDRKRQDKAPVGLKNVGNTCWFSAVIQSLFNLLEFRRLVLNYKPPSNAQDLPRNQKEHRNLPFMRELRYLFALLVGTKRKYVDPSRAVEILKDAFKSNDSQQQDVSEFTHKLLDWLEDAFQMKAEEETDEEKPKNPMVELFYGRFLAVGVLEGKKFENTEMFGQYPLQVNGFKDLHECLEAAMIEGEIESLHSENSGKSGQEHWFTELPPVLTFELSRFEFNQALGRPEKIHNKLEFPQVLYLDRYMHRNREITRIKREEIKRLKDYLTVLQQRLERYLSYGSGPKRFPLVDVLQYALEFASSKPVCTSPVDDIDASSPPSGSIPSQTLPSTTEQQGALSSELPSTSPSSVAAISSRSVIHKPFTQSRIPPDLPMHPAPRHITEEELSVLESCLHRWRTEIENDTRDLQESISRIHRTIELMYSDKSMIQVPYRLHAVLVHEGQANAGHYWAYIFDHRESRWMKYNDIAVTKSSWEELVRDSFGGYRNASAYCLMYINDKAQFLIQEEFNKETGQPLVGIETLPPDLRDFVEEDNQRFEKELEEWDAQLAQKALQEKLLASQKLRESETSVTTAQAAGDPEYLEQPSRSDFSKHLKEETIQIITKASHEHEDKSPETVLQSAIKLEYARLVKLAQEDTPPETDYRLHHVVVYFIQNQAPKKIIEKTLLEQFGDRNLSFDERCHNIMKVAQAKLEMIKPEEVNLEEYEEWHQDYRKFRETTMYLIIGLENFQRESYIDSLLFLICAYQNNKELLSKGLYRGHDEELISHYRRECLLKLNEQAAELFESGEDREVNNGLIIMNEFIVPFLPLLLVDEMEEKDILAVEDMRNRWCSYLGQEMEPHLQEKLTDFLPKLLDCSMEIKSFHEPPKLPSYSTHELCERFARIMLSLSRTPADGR
Assay: Ubiquitin-Rhodamine 110 Assay for USP25 Activity, Example A-2
Assay type: biochemical
Details: Ubiquitin-Rhodamine 110 assay, Example A-2; read-out: USP25 A-2 IC50 range
Procedure, shortened: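 Fluorescence (ex 485, em 535 nm) of cleaved ubiquitin-rhodamine 110 (25 nM, below Km) gave IC50 via 4-parameter logistic fit. Reaction: 45 min, room temperature, citric acid stop, after 30 min compound preincubation with 75 pM USP25-His6 in 20 mM Tris pH 8.0, 3 mM BME, 0.03% BGG, 0.01% Triton X-100; top dose 25 μM.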

Row | Structure (SMILES) | IC50 [nM]
1 | CO[C@]1(C)CN(c2ccc3c(c2)OC[C@H](NC(=O)c2sc4nc(C)ccc4c2N)C3)C[C@H]1N [Example 282, 3-amino-N-[(3R)-7-[(3R,4R)-4-amino-3-methoxy-3-methylpyrrolidin-1-yl]-3,4-dihydro-2H-1-benzopyran-3-yl]-6-methylthieno[2,3-b]pyridine-2-carboxamide] | 200 to 2000
2 | CO[C@@H]1[C@@H](N)CN(c2ccc3c(c2)OC[C@H](NC(=O)c2sc4nc(C)ccc4c2N)C3)[C@H]1C [Example 283, 3-amino-N-[(3R)-7-[(2S,3R,4S)-4-amino-3-methoxy-2-methylpyrrolidin-1-yl]-3,4-dihydro-2H-1-benzopyran-3-yl]-6-methylthieno[2,3-b]pyridine-2-carboxamide] | 50 to 200
3 | CO[C@H]1[C@H](N)CN(c2ccc3c(c2)OC[C@H](NC(=O)c2sc4nc(C)ccc4c2N)C3)[C@@H]1C [Example 284, 3-amino-N-[(3R)-7-[(2R,3S,4R)-4-amino-3-methoxy-2-methylpyrrolidin-1-yl]-3,4-dihydro-2H-1-benzopyran-3-yl]-6-methylthieno[2,3-b]pyridine-2-carboxamide] | 50 to 200
4 | Cc1ccc2c(N)c(C(=O)N[C@H]3CCc4nc(N5C[C@H](OC6CCC6)[C@@H](N)C5)ccc4C3)sc2n1 [Example 285, 3-amino-N-[(6S)-2-[(3S,4S)-3-amino-4-cyclobutoxypyrrolidin-1-yl]-5,6,7,8-tetrahydroquinolin-6-yl]-6-methylthieno[2,3-b]pyridine-2-carboxamide] | > 2000
5 | CO[C@H]1CN(c2ccc3c(n2)OC[C@H](NC(=O)c2sc4nc(C)cc(C)c4c2N)C3)C[C@@H]1N [Example 286, 3-amino-N-[(3R)-7-[(3S,4S)-3-amino-4-methoxypyrrolidin-1-yl]-2H,3H,4H-pyrano[2,3-b]pyridin-3-yl]-4,6-dimethylthieno[2,3-b]pyridine-2-carboxamide] | > 2000
6 | Cc1ccc2c(N)c(C(=O)N[C@H]3COc4nc(N5C[C@H](OC(C)C)[C@@H](N)C5)ccc4C3)sc2n1 [Example 287, 3-amino-N-[(3R)-7-[(3S,4S)-3-amino-4-(propan-2-yloxy)pyrrolidin-1-yl]-2H,3H,4H-pyrano[2,3-b]pyridin-3-yl]-6-methylthieno[2,3-b]pyridine-2-carboxamide] | > 2000
7 | Cc1ccc2c(N)c(C(=O)N[C@H]3COc4cc(N5CC[C@@H](N)C5)ccc4C3)sc2n1 [Example 288, 3-amino-N-[(3R)-7-[(3R)-3-aminopyrrolidin-1-yl]-3,4-dihydro-2H-1-benzopyran-3-yl]-6-methylthieno[2,3-b]pyridine-2-carboxamide] | 200 to 2000
8 | CO[C@]12CNC[C@H]1CN(c1ccc3c(c1)OC[C@H](NC(=O)c1sc4nc(C)ccc4c1N)C3)C2 [Example 291, N-[(3R)-7-[(3aS,6aS)-3a-methoxy-octahydropyrrolo[3,4-c]pyrrol-2-yl]-3,4-dihydro-2H-1-benzopyran-3-yl]-3-amino-6-methylthieno[2,3-b]pyridine-2-carboxamide] | 200 to 2000
9 | CO[C@@]12CNC[C@@H]1CN(c1ccc3c(c1)OC[C@H](NC(=O)c1sc4nc(C)ccc4c1N)C3)C2 [Example 292, N-[(3R)-7-[(3aR,6aR)-3a-methoxy-octahydropyrrolo[3,4-c]pyrrol-2-yl]-3,4-dihydro-2H-1-benzopyran-3-yl]-3-amino-6-methylthieno[2,3-b]pyridine-2-carboxamide] | 200 to 2000
10 | CO[C@H]1CN(c2ccc3c(n2)CC[C@H](NC(=O)c2sc4nc(C)cc(C)c4c2N)C3)C[C@@H]1NC(C)=O [Example 293, 3-amino-N-[(6S)-2-[(3S,4S)-3-acetamido-4-methoxypyrrolidin-1-yl]-5,6,7,8-tetrahydroquinolin-6-yl]-4,6-dimethylthieno[2,3-b]pyridine-2-carboxamide] | > 2000
11 | Cc1ccc2c(N)c(C(=O)N[C@H]3COc4cc(N5C[C@H](C(F)F)[C@@H](N)C5)ccc4C3)sc2n1 [Example 294, 3-amino-N-[(3R)-7-[(3R,4S)-3-amino-4-(difluoromethyl)pyrrolidin-1-yl]-3,4-dihydro-2H-1-benzopyran-3-yl]-6-methylthieno[2,3-b]pyridine-2-carboxamide] | 50 to 200
